Assay results as given in PubChem BioAssay (NCI).
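Protocol summary: plate cells (96-well), add compound at 5 concentrations, incubate 48 h, interpolate endpoints linearly. Here, GI50 denotes the concentration required for 50% inhibition of growth. TGI: concentration producing complete growth inhibition.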

Key:
Experiment in all cases: NCI-60 cell line screen, 48 h
HOP-62 NSCLC = tested on: HOP-62 NSCLC
OVCAR-3 ovarian = tested on: OVCAR-3 ovarian
SK-MEL-2 melanoma = tested on: SK-MEL-2 melanoma
COLO 205 colon = tested on: COLO 205 colon
RXF 393 renal = tested on: RXF 393 renal
OVCAR-4 ovarian = tested on: OVCAR-4 ovarian
SF-295 CNS = tested on: SF-295 CNS
SNB-19 CNS = tested on: SNB-19 CNS
A549 NSCLC = tested on: A549 NSCLC
NCI-H460 lung = tested on: NCI-H460 lung

Row | Structure (SMILES) | GI50 (HOP-62 NSCLC) [µM] | TGI (HOP-62 NSCLC) [µM] | GI50 (OVCAR-3 ovarian) [µM] | TGI (OVCAR-3 ovarian) [µM] | GI50 (SK-MEL-2 melanoma) [µM] | TGI (SK-MEL-2 melanoma) [µM] | GI50 (COLO 205 colon) [µM] | TGI (COLO 205 colon) [µM] | GI50 (RXF 393 renal) [µM] | TGI (RXF 393 renal) [µM] | GI50 (OVCAR-4 ovarian) [µM] | TGI (OVCAR-4 ovarian) [µM] | GI50 (SF-295 CNS) [µM] | TGI (SF-295 CNS) [µM] | GI50 (SNB-19 CNS) [µM] | TGI (SNB-19 CNS) [µM] | GI50 (A549 NSCLC) [µM] | TGI (A549 NSCLC) [µM] | GI50 (NCI-H460 lung) [µM] | TGI (NCI-H460 lung) [µM]
1 | Cc1ccc2c(c1)C(=O)c1c-2c(OCCCN(C)C)nc2ccccc12 | 2.52 | 16 | 5.72 | 19.8 | 11.7 | 27.4 | 1.16 | 3.82 | 2.26 | 12.7 | 2.73 | 13.1 | 2.87 | 14.1 | 2.81 | 15.1 | 1.46 | 3.19 | 0.976 | 3.2
2 | C[C@H]1CNC(=O)c2cnn3ccc(nc23)N[C@H](C)c2cc(F)ccc2O1 | 1.03 | > 21.5 | 1.32 | 19.6 | 3.54 | 24 | 0.779 | 4.33 | 0.282 | 1.26 | 1.67 | 26.6 | 0.595 | 8.15 | 2.17 | 47.4 | 0.937 | 16.4 | 0.946 | 25.1
3 | COc1ccc(/C=C2\SC(=Nc3ccccc3)NC2=O)cc1 | 7.06 | 26.1 | 3.67 | 11.2 | 29.3 | 82.4 | 4.68 | 27.9 | 4.68 | 26.8 | 10 | 25.7 | 4.6 | > 100 | 6.34 | 83.7 | 4.74 | 26.7 | 3.36 | 13.4
4 | CC([C@H]1CC=C2C3CCC4=C[C@@H](N(C)C)CC[C@]4(C)C3CC[C@@]21C)N(C)C (stereo not given in full) | 1.8 | 3.87 | 2.45 | 8.74 | 8.23 | 21 | 1.7 | 3.37 | 4.28 | 17.3 | 3.26 | 21.9 | 1.79 | 4.35 | 7.57 | 20.4 | 3.97 | 11.1 | 2.07 | 5.48
5 | CN(C)CCCC1(c2ccc(F)cc2)OCc2cc(-c3cc4ccccc4s3)ccc21 (stereo not given) | 1.6 | 3 | 1.67 | 3.19 | 1.8 | 3.46 | 1.34 | 2.74 | 1.42 | 2.86 | 1.94 | 3.52 | 1.91 | 3.6 | 1.72 | 3.13 | 1.73 | 3.19 | 1.93 | 3.67
6 | Cn1c(-c2ccccc2)c(/C=C/C2=[N+](C)c3ccccc3C2(C)C)c2ccccc21 | 2.15 | 12.6 | 0.664 | 6.37 | 1.13 | 4.19 | 1 | 2.47 | 2.55 | 12.6 | 1.81 | 14.4 | 0.775 | 3.73 | 0.571 | 15.5 | 1.73 | 12.8 | 0.58 | 8.24
7 | CC1CC(C)C2OC2(C)C[C@H](C)C(=O)NC(C)C(=O)N(C)[C@H](Cc2c(Br)[nH]c3ccccc23)C(=O)N[C@@H](c2ccc(O)cc2)CC(=O)O1 (stereo not given in full) | – | 1.4 | – | 9.61 | – | 0.876 | – | 0.145 | – | 4.81 | – | 1.09 | – | 31.3 | – | 0.544 | – | > 100 | – | > 100
8 | C[n+]1c2ccccc2nc2ccccc21 | 3.66 | 10.7 | 0.338 | 1.19 | 1.76 | 4.54 | 0.375 | 1.39 | 1.7 | 4.29 | 0.447 | 1.75 | 1.54 | 4.19 | 4.03 | 16.8 | 2.93 | 19.9 | 2.33 | 11.2
9 | NC(N)=NC(N)=NCCCc1ccco1 | 82.7 | 196 | 114 | 329 | 47.5 | 115 | > 500 | > 500 | 77.5 | 237 | 96.8 | 268 | 163 | > 500 | > 500 | > 500 | > 500 | > 500 | 143 | > 500
10 | Cc1ccc(S(=O)(=O)c2ccc(C)cc2[N+](=O)[O-])cc1 | – | > 100 | – | > 100 | – | > 100 | – | > 100 | – | > 100 | – | > 100 | – | > 100 | – | > 100 | – | > 100 | – | > 100
11 | C=C1C(=O)O[C@H]2[C@H]1CC/C(COC(=O)CCCc1c[nH]c3ccccc13)=C\CC[C@@]1(C)O[C@@H]21 | 6.54 | 19.6 | 1.53 | 3.02 | 1.96 | 5.39 | 1.86 | 3.79 | 1.46 | 2.85 | 1.66 | 3.28 | 5.69 | 19 | 2.59 | 7.87 | 5.47 | 22.4 | 4.54 | 19.2
12 | CC(C)(C)N/N=C(\C(=O)Nc1nc(=S)[nH][nH]1)C1C(=O)Nc2ccccc2S1=O (stereo not given) | – | > 100 | – | > 100 | – | > 100 | – | > 100 | – | > 100 | – | > 100 | – | > 100 | – | > 100 | – | > 100 | – | > 100
